Results on one compound are retold here after patent publication US10766895B2 (Zhejiang Huahai Pharmaceutical Co., Ltd., priority 2015, dated 2020).

For data set [1] the following is noted: all of organic solvents; cited from earlier work.
Data set [2] is described as follows: Comparative Example 1: heating palbociclib free base in n-butanol and anisole (method of WO2014128588A1). The class given is physicochemical. The conditions noted are these: n-butanol (16 ml/g) and anisole (24 ml/g), heated to 95-100° C. From the text:
The seed crystal of crystal form A was required to be added into the reaction system to obtain a crystal form A of palbociclib free base.

On to `CC(=O)c1c(C)c2cnc(Nc3ccc(N4CCNCC4)cn3)nc2n(C2CCCC2)c1=O` [palbociclib free base, 6-acetyl-8-cyclopentyl-5-methyl-2-[[5-(piperazine-1-yl)pyridine-2-yl]amino]-8H-pyrido[2,3-D]pyrimidine-7-ketone], for which the “Solubility in organic solvents” value in data set [1] is reported as “very poor solubility”. Moreover, the Solubility on heating entry in data set [2] was “remained insoluble”.
